Drawing on ChEMBL document CHEMBL1139913, “Synthesis, biological evaluations, and tubulin binding poses of C-2alpha sulfur linked taxol analogues” (Bioorg Med Chem Lett, 2007), this text covers IC50 for 5 compounds.

In one test the test system is A2780. Nature of the test: Cytotoxicity against A2780 cells by MTT assay. The test is classed as functional, cell-based. The conditions noted are these: Homo sapiens. (Formazan colour is commonly taken as a measure of viable cells.)
Test [1] is described as follows: Cytotoxicity against A2780/AD cells by MTT assay. The test is classed as functional, cell-based. The settings on record: Homo sapiens, A2780 ADR.

In general, IC50 refers to the concentration needed to halve the response being measured. A lower IC50 goes with higher potency. `CC(=O)O[C@H]1C(=O)[C@@]2(C)[C@H]([C@H](SC(=O)c3ccccc3)[C@]3(O)C[C@H](OC(=O)[C@H](O)[C@@H](NC(=O)c4ccccc4)c4ccccc4)C(C)=C1C3(C)C)[C@]1(OC(C)=O)CO[C@@H]1C[C@@H]2O`: the results for the IC50 (with A2780; in test [1]) were 11.7 µM and 27 µM, respectively.

As for `CC(=O)O[C@H]1C(=O)[C@@]2(C)[C@H]([C@H](SCc3ccccc3)[C@]3(O)C[C@H](OC(=O)[C@H](O)[C@@H](NC(=O)c4ccccc4)c4ccccc4)C(C)=C1C3(C)C)[C@]1(OC(C)=O)CO[C@@H]1C[C@@H]2O`, the IC50 in the test with A2780 was determined as 9.9 µM; in test [1], 9.4 µM.

For `CC(=O)O[C@H]1C(=O)[C@@]2(C)[C@H]([C@H](OC(=O)c3ccccc3)[C@]3(O)C[C@H](OC(=O)[C@H](O)[C@@H](NC(=O)c4ccccc4)c4ccccc4)C(C)=C1C3(C)C)[C@]1(OC(C)=O)CO[C@@H]1C[C@@H]2O` [PACLITAXEL], the IC50 is 0.0016 µM with A2780 and 0.92 µM in test [1].

With `CC(=O)O[C@H]1C(=O)[C@@]2(C)[C@H]([C@H](SC(=O)c3ccccc3)[C@]3(O)C[C@H](OC(=O)[C@H](O)[C@@H](NC(=O)OC(C)(C)C)c4ccccc4)C(C)=C1C3(C)C)[C@]1(OC(C)=O)CO[C@@H]1C[C@@H]2O`, the IC50 with A2780 was 2.4 µM; in test [1], 6.96 µM.

With `CC(=O)O[C@H]1C(=O)[C@@]2(C)[C@H]([C@H](SCc3ccccc3)[C@]3(O)C[C@H](OC(=O)[C@H](O)[C@@H](NC(=O)OC(C)(C)C)c4ccccc4)C(C)=C1C3(C)C)[C@]1(OC(C)=O)CO[C@@H]1C[C@@H]2O`, the IC50 in the test with A2780 came out at 3.5 µM; in test [1], 8.3 µM.
